Laboratory results published in patent publication US8906909B2 (Curis, Inc., priority 2009, dated 2014).

Tests used:
[1] = test system: MDA-MB-453 cells; test: Cell proliferation assay Method B, MDA-MB-453; type: cell-based; conditions: Homo sapiens, Breast, 72 hours, read-out: antiproliferative activity IC50, MDA-MB-453
Procedure: (§1) Cancer cell lines were plated at 5,000 to 10,000 per well in 96-well flat bottomed plates with various concentration of compounds. The cells were incubated with compounds for 72 hours in the presence of 0.5% of fetal bovine serum. Growth inhibition was accessed by adenosine triphosphate (ATP) content assay using Promega CellTiter-Glo kit. Promega CellTiter-Glo kit is an ATP monitoring system based on firefly luciferase. Briefly, 16 μl of mammalian cell lysis and substrate solution was added to 84 μl of culture medium per well to lyse the cells and stabilize the ATP. The mixture was shaken and incubated for 30 minutes and subsequently the luminescence was measured.

[2] = test system: HCC1806 cells; test: Cell proliferation assay Method B, HCC1806; type: cell-based; conditions: Homo sapiens, Breast, 72 hours, read-out: antiproliferative activity IC50, HCC1806
Procedure: as §1

[3] = test system: T47D cells; test: Cell proliferation assay Method B, T47D; type: cell-based; conditions: Homo sapiens, Breast, 72 hours, read-out: antiproliferative activity IC50, T47D
Procedure: as §1

[4] = test system: L1210 cells; test: Cell proliferation assay Method B, L1210; type: cell-based; conditions: Mouse LL, 72 hours, read-out: antiproliferative activity IC50, L1210
Procedure: as §1

[5] = test system: MV-4-11 cells; test: Cell proliferation assay Method B, MV-4-11; type: cell-based; conditions: Homo sapiens, MV4-11, AML, 72 hours, read-out: antiproliferative activity IC50, MV-4-11
Procedure: as §1

[6] = test system: RPMI-8226 cells; test: Cell proliferation assay Method B, RPMI-8226; type: cell-based; conditions: Homo sapiens, Multiple Myeloma, Method B, 72 hours, read-out: antiproliferative activity IC50, RPMI-8226
Procedure: as §1

[7] = test system: K562 cells; test: Cell proliferation assay Method B, K562; type: cell-based; conditions: Homo sapiens, CML, 72 hours, read-out: antiproliferative activity IC50, K562
Procedure: as §1

[8] = test system: MOLT-4 cells; test: Cell proliferation assay Method B, MOLT-4; type: cell-based; conditions: Homo sapiens, ALL, 72 hours, read-out: antiproliferative activity IC50, MOLT-4
Procedure: as §1

[9] = test system: U937 cells; test: Cell proliferation assay Method B, U937; type: cell-based; conditions: Homo sapiens, U-937, AML, 72 hours, read-out: antiproliferative activity IC50, U937
Procedure: as §1

[10] = test system: ARH77 cells; test: Cell proliferation assay Method B, ARH77; type: cell-based; conditions: Homo sapiens, ARH-77, Multiple Myeloma, 72 hours, read-out: antiproliferative activity IC50, ARH77
Procedure: as §1

[11] = test system: P388 D1 cells; test: Cell proliferation assay Method B, P388 D1; type: cell-based; conditions: P388D1, Mouse Lymphoma, 72 hours, read-out: antiproliferative activity IC50, P388 D1
Procedure: as §1

[12] = test system: Pfeiffer cells; test: Cell proliferation assay Method B, Pfeiffer; type: cell-based; conditions: Homo sapiens, NHL, 72 hours, read-out: antiproliferative activity IC50, Pfeiffer
Procedure: as §1

[13] = test system: HDACs (HeLa cell nuclear extracts); test: HDAC enzymatic activity, Biomol Color de Lys system; type: biochemical
In short: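 HeLa nuclear extract as HDAC source with Color de Lys substrate in 50 mM Tris/Cl pH 8.0, 137 mM NaCl, 2.7 mM KCl, 1 mM MgCl2. Serially diluted compounds reacted 1 h at 25 °C, then developer added; fluorescence (Ex 350–380/Em 440–460) fitted sigmoidally for IC50.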

[14] = test system: Daudi cells; test: Cell proliferation assay Method B, Daudi; type: cell-based; conditions: Homo sapiens, NHL, 72 hours, read-out: antiproliferative activity IC50, Daudi
Procedure: as §1

[15] = test system: MDA-MB-361 cells; test: Cell proliferation assay Method B, MDA-MB-361; type: cell-based; conditions: Homo sapiens, Breast, 72 hours, read-out: antiproliferative activity IC50, MDA-MB-361
Procedure: as §1

[16] = test system: HL-60 cells; test: Cell proliferation assay Method B, HL-60; type: cell-based; conditions: Homo sapiens, AML, 72 hours, read-out: antiproliferative activity IC50, HL-60
Procedure: as §1

[17] = test system: SKBr3 cells; test: Cell proliferation assay Method B, SKBr3; type: cell-based; conditions: Homo sapiens, SK-BR-3, Breast, 72 hours, read-out: antiproliferative activity IC50, SKBr3
Procedure: as §1

[18] = test system: THP-1 cells; test: Cell proliferation assay Method B, THP-1; type: cell-based; conditions: Homo sapiens, AML, 72 hours, read-out: antiproliferative activity IC50, THP-1
Procedure: as §1

[19] = test system: Raji cells; test: Cell proliferation assay Method B, Raji; type: cell-based; conditions: Homo sapiens, NHL, 72 hours, read-out: antiproliferative activity IC50, Raji
Procedure: as §1

[20] = test system: MCF-7 cells; test: Cell proliferation assay Method B, MCF-7; type: cell-based; conditions: Homo sapiens, MCF7, Breast, 72 hours, read-out: antiproliferative activity IC50, MCF-7
Procedure: as §1

[21] = test system: ZR-75-1 cells; test: Cell proliferation assay Method B, ZR-75-1; type: cell-based; conditions: Homo sapiens, Breast, 72 hours, read-out: antiproliferative activity IC50, ZR-75-1
Procedure: as §1

[22] = test system: BT474 cells; test: Cell proliferation assay Method B, BT474; type: cell-based; conditions: Homo sapiens, BT-474; Breast; Method B; 72 hours; read-out: antiproliferative activity IC50, BT474
Procedure: as §1

[23] = target: T1, PI3Kα (p110α/p85α) (Homo sapiens, UniProt P42336); test: PI3Kα fluorescence polarization assay; type: biochemical; conditions: 10 μM ATP
T1 construct: N-terminal histidine-tagged recombinant full-length human p110α; His tag (N); made in house; host or cells: Baculovirus-infected Sf9 insect cells
T1 sequence (P42336 whole entry): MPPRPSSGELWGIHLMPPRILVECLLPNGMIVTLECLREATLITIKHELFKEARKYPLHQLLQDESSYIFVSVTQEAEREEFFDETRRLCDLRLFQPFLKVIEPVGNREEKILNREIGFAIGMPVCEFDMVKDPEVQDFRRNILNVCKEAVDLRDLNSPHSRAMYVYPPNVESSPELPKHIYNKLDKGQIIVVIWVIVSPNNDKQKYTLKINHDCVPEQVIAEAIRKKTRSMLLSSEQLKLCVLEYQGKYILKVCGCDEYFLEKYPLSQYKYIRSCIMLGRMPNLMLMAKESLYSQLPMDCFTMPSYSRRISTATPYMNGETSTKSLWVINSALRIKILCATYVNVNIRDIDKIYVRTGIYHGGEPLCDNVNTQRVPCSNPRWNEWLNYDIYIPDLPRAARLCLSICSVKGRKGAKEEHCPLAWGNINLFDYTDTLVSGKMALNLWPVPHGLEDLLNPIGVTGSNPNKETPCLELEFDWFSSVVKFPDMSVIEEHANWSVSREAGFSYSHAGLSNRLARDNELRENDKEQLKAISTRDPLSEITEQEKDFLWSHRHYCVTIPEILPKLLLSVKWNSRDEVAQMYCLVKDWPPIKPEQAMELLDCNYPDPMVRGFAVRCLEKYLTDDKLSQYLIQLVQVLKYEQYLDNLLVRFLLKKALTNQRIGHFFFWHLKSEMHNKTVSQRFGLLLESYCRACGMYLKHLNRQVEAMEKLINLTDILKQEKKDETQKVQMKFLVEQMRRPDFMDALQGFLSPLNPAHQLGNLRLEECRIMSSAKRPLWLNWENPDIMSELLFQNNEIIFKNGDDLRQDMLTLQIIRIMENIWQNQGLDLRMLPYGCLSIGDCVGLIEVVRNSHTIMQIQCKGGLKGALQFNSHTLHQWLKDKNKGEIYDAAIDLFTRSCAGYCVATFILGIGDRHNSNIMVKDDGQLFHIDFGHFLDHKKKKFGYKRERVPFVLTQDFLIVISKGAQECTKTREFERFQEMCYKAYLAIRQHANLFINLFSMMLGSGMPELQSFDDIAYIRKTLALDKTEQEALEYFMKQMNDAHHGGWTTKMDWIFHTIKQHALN
T1 sequence (P27986 whole entry partner): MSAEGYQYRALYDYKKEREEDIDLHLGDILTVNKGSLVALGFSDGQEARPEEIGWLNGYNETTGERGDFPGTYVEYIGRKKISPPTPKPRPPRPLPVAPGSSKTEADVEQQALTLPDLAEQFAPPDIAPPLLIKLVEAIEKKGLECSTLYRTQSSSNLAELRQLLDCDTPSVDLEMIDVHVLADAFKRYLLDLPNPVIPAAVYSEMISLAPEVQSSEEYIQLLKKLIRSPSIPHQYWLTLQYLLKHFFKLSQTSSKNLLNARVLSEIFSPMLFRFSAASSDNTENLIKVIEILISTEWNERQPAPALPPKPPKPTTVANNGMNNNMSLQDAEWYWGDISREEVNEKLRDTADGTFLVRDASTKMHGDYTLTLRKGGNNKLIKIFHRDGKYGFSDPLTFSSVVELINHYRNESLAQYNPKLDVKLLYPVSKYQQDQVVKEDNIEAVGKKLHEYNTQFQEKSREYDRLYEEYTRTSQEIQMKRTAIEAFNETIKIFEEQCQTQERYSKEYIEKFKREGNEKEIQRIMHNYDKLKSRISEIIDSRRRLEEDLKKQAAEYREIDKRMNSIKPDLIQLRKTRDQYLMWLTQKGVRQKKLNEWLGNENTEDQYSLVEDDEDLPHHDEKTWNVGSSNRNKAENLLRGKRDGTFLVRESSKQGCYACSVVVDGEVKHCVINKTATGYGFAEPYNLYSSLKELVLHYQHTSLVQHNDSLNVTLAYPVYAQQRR
Procedure: (a) An In Vitro Assay which Determines the Ability of a Test Compound to Inhibit PI3Kα.
Activity of PI3Kα was measured using fluorescence polarization assay. PI3Kα, a complex of N-terminal histidine-tagged recombinant full-length human p110α and untagged recombinant full length human p85α were coexpressed in a Baculovirus infected Sf9 cell expression system. (GenBank Accession No. for p110α, U79143; for p85α, XM—043865). The proteins are purified by one-step affinity chromatography using glutathione-agarose. A competition assay was performed to measure the amount of PIP3 generated from PIP2 in the presence of purified recombinant PI3Kα (p110α/p85α). PI3K a was incubated with 10 μM PIP2 substrate in the reaction buffer (20 mM HEPES, pH 7.5, 10 mM NaCl, 4 mM MgCl2, 2 mM DTT, 10 μM ATP and 1% DMSO) for 1 hour at 30° C. The reaction product was then mixed with a PIP3 detector protein and the fluorescent PIP3 probe. Polarization (mP) values decrease as fluorescent probe binding to the PIP3 detector is displaced by PIP3 produced by enzymatic activity and the amount of unbound fluorescent probe in the mixture increases. Polarization degrees (mP) value was determined using microplate reader with background subtraction.

[24] = test system: MEG-01 cells; test: Cell proliferation assay Method B, MEG-01; type: cell-based; conditions: Homo sapiens, CML, 72 hours, read-out: antiproliferative activity IC50, MEG-01
Procedure: as §1

[25] = test system: UACC-893 cells; test: Cell proliferation assay Method B, UACC-893; type: cell-based; conditions: Homo sapiens, Breast, 72 hours, read-out: antiproliferative activity IC50, UACC-893
Procedure: as §1

[26] = test system: HCC1500 cells; test: Cell proliferation assay Method B, HCC1500; type: cell-based; conditions: Breast, 72 hours, read-out: antiproliferative activity IC50, HCC1500
Procedure: as §1

[27] = test system: MDA-MB-468 cells; test: Cell proliferation assay Method B, MDA-MB-468; type: cell-based; conditions: Homo sapiens, Breast, Method B, 72 hours, read-out: antiproliferative activity IC50, MDA-MB-468
Procedure: as §1

[28] = test system: SUP-B15 cells; test: Cell proliferation assay Method B, SUP-B15; type: cell-based; conditions: Homo sapiens, ALL, 72 hours, read-out: antiproliferative activity IC50, SUP-B15
Procedure: as §1

[29] = test system: MDA-MB-231 cells; test: Cell proliferation assay Method B, MDA-MB-231; type: cell-based; conditions: Homo sapiens, Breast, Method B, 72 hours, read-out: antiproliferative activity IC50, MDA-MB-231 (second listing, r32)
Procedure: as §1

IC50 [13] [µM] | Compound | IC50 [1] [µM] | IC50 [2] [µM] | IC50 [3] [µM] | IC50 [4] [µM] | IC50 [5] [µM] | IC50 [6] [µM] | IC50 [7] [µM] | IC50 [8] [µM] | IC50 [9] [µM] | IC50 [10] [µM] | IC50 [11] [µM] | IC50 [12] [µM] | IC50 [14] [µM] | IC50 [15] [µM] | IC50 [16] [µM] | IC50 [17] [µM] | IC50 [18] [µM] | IC50 [19] [µM] | IC50 [20] [µM] | further results
< 0.1 | CNc1ccc(-c2nc(N3CCOCC3)c3sc(CN(C)c4ncc(C(=O)NO)cn4)cc3n2)cn1 [Compound 111, N-Hydroxy-2-(methyl((2-(6-(methylamino)pyridin-3-yl)-4-morpholinothieno[3,2-d]pyrimidin-6-yl)methyl)amino)pyrimidine-5-carboxamide] | < 0.01 | 0.01 to 0.1 | < 0.01 | < 0.01 | < 0.01 | < 0.01 | 0.01 to 0.1 | < 0.01 | < 0.01 | < 0.01 | < 0.01 | < 0.01 | < 0.01 | < 0.01 | < 0.01 | 0.01 to 0.1 | 0.01 to 0.1 | 0.01 to 0.1 | < 0.01 | IC50 [21]: 0.01 to 0.1 µM; IC50 [22]: < 0.01 µM
< 0.1 | CS(=O)(=O)N1CCN(Cc2cc3nc(-c4cccc5c4cnn5CCCCCC(=O)NO)nc(N4CCOCC4)c3s2)CC1 [Compound 4] | – | – | – | – | – | – | – | – | – | – | – | – | – | – | – | – | – | – | – | melting point: 186 to 187 °C; IC50 [23]: > 10 µM
< 0.1 | CS(=O)(=O)N1CCN(Cc2cc3nc(-c4cccc5c4cnn5CCCCC(=O)NO)nc(N4CCOCC4)c3s2)CC1 [Compound 3, N-hydroxy-5-(4-(6-((4-(methylsulfonyl)piperazin-1-yl)methyl)-4-morpholinothieno[3,2-d]pyrimidin-2-yl)-1H-indazol-1-yl)pentanamide] | – | – | – | – | – | – | – | – | – | – | – | – | – | – | – | – | – | – | – | melting point: 139 to 143 °C; IC50 [23]: > 10 µM

Compound | IC50 [13] [µM] | IC50 [1] [µM] | IC50 [2] [µM] | IC50 [3] [µM] | IC50 [4] [µM] | IC50 [5] [µM] | IC50 [6] [µM] | IC50 [7] [µM] | IC50 [8] [µM] | IC50 [9] [µM] | IC50 [10] [µM] | IC50 [11] [µM] | IC50 [12] [µM] | IC50 [14] [µM] | IC50 [15] [µM] | IC50 [16] [µM] | IC50 [17] [µM] | IC50 [18] [µM] | IC50 [19] [µM] | IC50 [20] [µM] | further results
COc1ccc(-c2nc(N3CCOCC3)c3sc(CN(C)c4ncc(C(=O)NO)cn4)cc3n2)cn1 [Compound 236, N-Hydroxy-2-(((2-(6-methoxypyridin-3-yl)-4-morpholinothieno[3,2-d]pyrimidin-6-yl)methyl)(methyl)amino)pyrimidine-5-carboxamide] | < 0.1 | < 0.01 | 0.01 to 0.1 | 0.01 to 0.1 | 0.01 to 0.1 | < 0.01 | < 0.01 | 0.1 to 1 | < 0.01 | < 0.01 | 0.01 to 0.1 | 0.01 to 0.1 | < 0.01 | 0.01 to 0.1 | < 0.01 | < 0.01 | 0.01 to 0.1 | 0.01 to 0.1 | 0.01 to 0.1 | < 0.01 | IC50 [24]: 0.01 to 0.1 µM; IC50 [25]: 0.01 to 0.1 µM; IC50 [26]: < 0.01 µM; IC50 [27]: 0.01 to 0.1 µM; IC50 [28]: < 0.01 µM; IC50 [21]: 0.01 to 0.1 µM; IC50 [29]: 0.01 to 0.1 µM; IC50 [22]: < 0.01 µM
